Drawing on US11497751B2, “Modulators of Rho-associated protein kinase” (Redx Pharma PLC, priority 2018, dated 2022), this text covers IC50 for 62 compounds.

The experiment addresses T1, N-terminal 6His-tagged ROCK2 catalytic domain 11-552 (Homo sapiens, UniProt O75116).
T1 construct: N-terminal 6His-tagged ROCK2 catalytic domain 11-552; 6His (N); purchased Dundee University, UK; host or cells: baculovirus expression system
Nature of the experiment: ROCK2 binding activity: ROCK2 inhibition, ADP-Glo Kinase Assay. The experiment is classed as biochemical. As to conditions: 1.25 nM ROCK2, 100 μM long S6 peptide, 20 μM ATP; 1 hour pre-incubation; read-out: ADP-Glo kinase activity assay ROCK2 Category. How it is done: Assay for ROCK2 inhibition was performed using the protein construct N-terminal 6His-tagged ROCK2 catalytic domain 11-552 (Dundee University, UK). Protein was purified from a baculovirus expression system. Long S6 peptide ([…]) was used as substrate. Kinase reactions were carried out in 15 μl volume in a 96-well plate (black, half area) using 1.25 nM constitutively active ROCK2 kinase, 100 μM long S6 peptide, 20 μM ATP and test compound in DMSO (or DMSO only for controls). The final concentration of DMSO was 1%. Assay buffer was 50 mM HEPES pH 7.5 supplemented with 0.2 mM EDTA, 10 mM magnesium acetate, 0.01% Tween-20, 1 mM DTT and 0.01% BSA. Test compounds were pre-incubated with ROCK2 kinase for 1 hour before addition of ATP and long S6 peptide. After incubation for a further 1 hour, the amount of ADP produced was measured using ADP-Glo Kinase Assay (Promega) as per manufacturer's instructions. The luminescence was measured on a PHERAstar FS (BMG Labtech). The concentration of test compound required to inhibit ADP production by 50% (the IC50) was calculated using a four-parameter logistic function with software by Dotmatics.
The category “+” refers to compounds with a ROCK2 IC50 value of >10 μM. The category “++” refers to compounds with a ROCK2 IC50 value of 10 to 3 μM. The category “+++” refers to compounds with a ROCK2 IC50 value of 3 to 0.3 μM. The category “++++” refers to compounds with a ROCK2 IC50 value of <0.3 μM.
Background: ADP-Glo first removes unused ATP, then detects ADP through luciferase.

Counter-ions that a name gives are not always drawn.

T1 sequence (O75116 11-552): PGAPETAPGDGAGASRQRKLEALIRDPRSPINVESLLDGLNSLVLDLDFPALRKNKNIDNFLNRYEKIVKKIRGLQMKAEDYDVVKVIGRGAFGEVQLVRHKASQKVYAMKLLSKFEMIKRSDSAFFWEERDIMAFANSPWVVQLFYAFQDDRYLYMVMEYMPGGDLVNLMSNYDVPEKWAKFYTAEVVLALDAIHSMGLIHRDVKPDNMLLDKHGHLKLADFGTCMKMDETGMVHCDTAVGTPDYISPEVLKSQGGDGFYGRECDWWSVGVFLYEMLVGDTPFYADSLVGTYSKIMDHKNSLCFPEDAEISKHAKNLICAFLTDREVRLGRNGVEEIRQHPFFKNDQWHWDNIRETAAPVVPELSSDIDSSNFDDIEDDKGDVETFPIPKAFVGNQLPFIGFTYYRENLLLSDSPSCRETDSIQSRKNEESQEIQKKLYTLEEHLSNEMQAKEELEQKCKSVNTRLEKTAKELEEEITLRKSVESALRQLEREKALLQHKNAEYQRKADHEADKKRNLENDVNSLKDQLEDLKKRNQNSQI

With `COc1ccc(-c2nnc(Nc3ccc4[nH]ncc4c3)[nH]2)cc1` [Example 1, N-[5-(4-Methoxyphenyl)-4H-1,2,4-triazol-3-yl]-1H-indazol-5-amine dihydrochloride], the IC50 lay within 300 to 3000 nM.
The figure for `COc1cccc(-c2nnc(Nc3ccc4[nH]ncc4c3)[nH]2)c1` [Example 2] is 300 to 3000 nM; for `COc1cc(OC)cc(-c2nnc(Nc3ccc4[nH]ncc4c3)[nH]2)c1` [Example 3] it is 300 to 3000 nM.
The figure for `COc1ccccc1-c1nnc(Nc2ccc3[nH]ncc3c2)[nH]1` [Example 4] is greater than 10000 nM; for `COc1ccc(-c2nnc(Nc3ccc4[nH]nc(C)c4c3)[nH]2)cc1` [Example 5] it is 3000 to 10000 nM.
As to `CC(C)NC(=O)COc1cccc(-c2nnc(Nc3ccc4[nH]ncc4c3)[nH]2)c1` [Example 6], the IC50 is less than 300 nM.
The figure for `CC(C)NC(=O)COc1ccc(-c2nnc(Nc3ccc4[nH]ncc4c3)[nH]2)cc1` [Example 7] is less than 300 nM.
The figure for `COc1cc(-c2nnc(Nc3ccc4[nH]ncc4c3)[nH]2)ccc1OCC(=O)NC(C)C` [Example 8] is less than 300 nM; for `CNC(=O)COc1ccc(-c2nnc(Nc3ccc4[nH]ncc4c3)[nH]2)cc1OC` [Example 9] it is 300 to 3000 nM.
Consider `Cc1cc(-c2nnc(Nc3ccc4[nH]ncc4c3)[nH]2)ccc1OCC(=O)NC(C)C` [Example 10], for which the IC50 was less than 300 nM.
Next, `CC(C)NC(=O)COc1ccc(-c2nc(Nc3ccc4[nH]ncc4c3)n[nH]2)cc1F` [Example 12, 2-[2-fluoro-4-[5-(1H-indazol-5-ylamino)-4H-1,2,4-triazol-3-yl]phenoxy]-N-isopropyl-acetamide]: less than 300 nM; `c1ccc(COc2ccc(-c3nnc(Nc4ccc5[nH]ncc5c4)[nH]3)cc2)cc1` [Example 13]: 300 to 3000 nM.
Next, `CC(C)NC(=O)COc1ccc(-c2nnc(Nc3ccc4[nH]ncc4c3)[nH]2)cc1C#N` [Example 14]: less than 300 nM; `CC(C)NC(=O)COc1ccc(-c2nnc(Nc3ccc4[nH]ncc4c3)[nH]2)cc1CN` [Example 15]: 300 to 3000 nM; `CC(C)NC(=O)Cn1cc(-c2nnc(Nc3ccc4[nH]ncc4c3)[nH]2)ccc1=O` [Example 16]: 300 to 3000 nM.
The figure for `COC(=O)COc1ccc(-c2nnc(Nc3ccc4[nH]ncc4c3)[nH]2)cc1` [Example 17] is less than 300 nM; for `CC(C)NC(=O)C(C)Oc1ccc(-c2nnc(Nc3ccc4[nH]ncc4c3)[nH]2)cc1` (centres unmarked) [Example 18] it is 300 to 3000 nM.
Turning to `CC(C)NC(=O)C(C)(C)Oc1ccc(-c2nnc(Nc3ccc4[nH]ncc4c3)[nH]2)cc1` [Example 19], the IC50 was 300 to 3000 nM.
For `CC(C)NC(=O)CCc1ccc(-c2nnc(Nc3ccc4[nH]ncc4c3)[nH]2)cc1` [Example 20], the IC50 lay in the range of 300 to 3000 nM.
As for `CC(C)NC(=O)CCOc1ccc(-c2nnc(Nc3ccc4[nH]ncc4c3)[nH]2)cc1` [Example 21], the IC50 lay within 300 to 3000 nM.
Next, `NCCCOc1ccc(-c2nnc(Nc3ccc4[nH]ncc4c3)[nH]2)cc1` [Example 22]: 300 to 3000 nM.
Next, `CC(C)C(=O)NCCOc1ccc(-c2nnc(Nc3ccc4[nH]ncc4c3)[nH]2)cc1` [Example 23]: 300 to 3000 nM.
As for `NCCOc1ccc(-c2nnc(Nc3ccc4[nH]ncc4c3)[nH]2)cc1` [Example 24], the IC50 lay within 300 to 3000 nM.
Next, `CC(C)NC(=O)COc1ccc(-c2nnc(Nc3ccc4[nH]ncc4c3)[nH]2)c(F)c1` [Example 25]: 300 to 3000 nM.
As for `Cc1cc(OCC(=O)NC(C)C)ccc1-c1nnc(Nc2ccc3[nH]ncc3c2)[nH]1` [Example 26], the IC50 is less than 300 nM.
Next, `COc1cc(OCC(=O)NC(C)C)ccc1-c1nnc(Nc2ccc3[nH]ncc3c2)[nH]1` [Example 27]: 300 to 3000 nM; `CC(C)NC(=O)Cn1ccc(-c2nnc(Nc3ccc4[nH]ncc4c3)[nH]2)cc1=O` [Example 28]: 3000 to 10000 nM.
Next, `CC(C)NC(=O)COc1ccc(-c2nnc(Nc3ccc4[nH]ncc4c3)[nH]2)cn1` [Example 29]: 300 to 3000 nM; `CC(C)NC(=O)COc1ccc(-c2nnc(Nc3ccc4[nH]ncc4c3Cl)[nH]2)cc1` [Example 30]: less than 300 nM; `O=C(O)COc1ccc(-c2nnc(Nc3ccc4[nH]ncc4c3)[nH]2)cc1` [Example 31]: 300 to 3000 nM.
The figure for `CC(C)C(=O)NCCCOc1ccc(-c2nnc(Nc3ccc4[nH]ncc4c3)[nH]2)cc1` [Example 32] is less than 300 nM; for `CC(C)NC(=O)CCn1ccc(-c2nnc(Nc3ccc4[nH]ncc4c3)[nH]2)cc1=O` [Example 33] it is greater than 10000 nM.
As for `CC(C)NC(=O)OCc1ccc(-c2nnc(Nc3ccc4[nH]ncc4c3)[nH]2)cc1` [Example 34], the IC50 was less than 300 nM.
Next, `CC(C)NC(=O)CCn1cc(-c2nnc(Nc3ccc4[nH]ncc4c3)[nH]2)ccc1=O` [Example 35]: 300 to 3000 nM; `CC(C)NC(=O)COc1c(F)cc(-c2nnc(Nc3ccc4[nH]ncc4c3)[nH]2)cc1F` [Example 36]: 300 to 3000 nM; `CS(=O)(=O)NC(=O)COc1ccc(-c2nnc(Nc3ccc4[nH]ncc4c3)[nH]2)cc1` [Example 37]: 300 to 3000 nM.
Consider `CC(C)NC(=O)COc1ccc(-c2nnc(Nc3ccc4[nH]ncc4c3)[nH]2)cc1Cl` [Example 38], for which the IC50 is less than 300 nM.
Next, `Oc1ccc(-c2nnc(Nc3ccc4[nH]ncc4c3)[nH]2)cc1` [Example 39]: 300 to 3000 nM; `COc1cc(-c2nnc(Nc3ccc4[nH]ncc4c3)[nH]2)ccc1OCc1nnc(C)o1` [Example 40]: 300 to 3000 nM; `CC(C)NC(=O)NCc1ccc(-c2nnc(Nc3ccc4[nH]ncc4c3)[nH]2)cc1` [Example 41]: 3000 to 10000 nM.
Consider `CCc1cc(-c2nnc(Nc3ccc4[nH]ncc4c3)[nH]2)ccc1OCC(=O)NC(C)C` [Example 42], for which the IC50 is less than 300 nM.
For `CCNC(=O)c1ccc(-c2nc(Nc3ccc4[nH]ncc4c3Cl)n(C)n2)cc1F` [Example 43, 4-[5-[(4-chloro-1H-indazol-5-yl)amino]-1-methyl-1,2,4-triazol-3-yl]-N-ethyl-2-fluoro-benzamide], the IC50 is less than 300 nM.
The figure for `COc1cc(-c2nc(Nc3ccc4[nH]ncc4c3)n(C)n2)ccc1OCC(=O)NC1CNC1` [Example 45] is less than 300 nM; for `COc1cc(-c2nc(N(C)c3ccc4[nH]ncc4c3)n(C)n2)ccc1OCC(=O)NC(C)C` [Example 46] it is greater than 10000 nM; for `CN1CCc2cc(-c3nc(Nc4ccc5[nH]ncc5c4)n(C)n3)ccc2C1=O` [Example 47] it is less than 300 nM.
Next, `COc1cc(-c2nc(Nc3ccc4[nH]ncc4c3Cl)n(C)n2)ccc1OCC(=O)NC1CNC1` [Example 48]: less than 300 nM; `COc1cc(-c2nc(Nc3ccc4[nH]ncc4c3Cl)n(C)n2)ccc1OCC(=O)NC1CCNC1` (centres unmarked) [Example 49]: less than 300 nM; `COc1cc(-c2nc(Nc3ccc4[nH]ncc4c3Cl)n(C)n2)ccc1OCC(=O)NC1(CO)CCCC1` [Example 50]: less than 300 nM.
As for `COc1cc(-c2nc(Nc3ccc4[nH]ncc4c3Cl)n(C)n2)ccc1OCC(=O)NC1CCOC1` (centres unmarked) [Example 51], the IC50 is less than 300 nM.
The figure for `CC(C)NC(=O)COc1ccc(-c2nc(Nc3ccc4[nH]ncc4c3Cl)n(C)n2)cc1N1CCOCC1` [Example 52] is 300 to 3000 nM; for `CC(C)NC(=O)N1CCc2cc(-c3nc(Nc4ccc5[nH]ncc5c4Cl)n(C)n3)ccc2C1` [Example 54] it is less than 300 nM.
The figure for `COC(=O)c1ccc(-c2nc(Nc3ccc4[nH]ncc4c3Cl)n(C)n2)cc1` [Example 56] is less than 300 nM; for `CNC(=O)Cc1ccc(-c2nc(Nc3ccc4[nH]ncc4c3Cl)n(C)n2)cc1OC` [Example 57] it is 300 to 3000 nM.
The figure for `CC(C)NC(=O)CN1CCOc2cc(-c3nc(Nc4ccc5[nH]ncc5c4Cl)n(C)n3)ccc21` [Example 58] is less than 300 nM; for `Cn1nc(-c2cnn(Cc3ccccc3)c2)nc1Nc1ccc2[nH]ncc2c1Cl` [Example 60] it is 300 to 3000 nM; for `Cn1nc(-c2ccc(C(=O)N3CCOCC3)cc2)nc1Nc1ccc2[nH]ncc2c1Cl` [Example 61] it is 300 to 3000 nM.
Regarding `CNC(=O)c1ccc(-c2nc(Nc3ccc4[nH]ncc4c3Cl)n(C)n2)cc1` [Example 62], the IC50 was less than 300 nM.
Next, `COCc1ccc(-c2nc(Nc3ccc4[nH]ncc4c3Cl)n(C)n2)cc1` [Example 63]: less than 300 nM; `COc1cc(-c2nc(Nc3ccc4[nH]ncc4c3Cl)n(C)n2)ccc1OCC(=O)NCCN(C)C` [Example 64]: less than 300 nM; `Cn1nc(-c2ccc3c(c2)OCCC3=O)nc1Nc1ccc2[nH]ncc2c1Cl` [Example 66]: less than 300 nM.
As for `COc1cc(-c2nc(Nc3ccc4[nH]ncc4c3Cl)n(C)n2)ccc1OCC(=O)NC(C)C` [Example 68], the IC50 was less than 300 nM.
The figure for `Cn1nc(-c2cccc(N3CCOCC3)c2)nc1Nc1ccc2[nH]ncc2c1Cl` [Example 69] is less than 300 nM.
